Experimental data published in ChEMBL document CHEMBL4402594, “Interrogating the Lactate Dehydrogenase Tetramerization Site Using (Stapled) Peptides” (J Med Chem, 2020).
Where a name gives a salt, the structure may show the parent alone. Blank lines part the entries; values can stand above or below the compound they belong to. The source made the active and inactive calls. The calls are words filed in the database; no cut-off is given here. Peptide text beside a SMILES is read from it.

Key:
[1] = molecular target: T1, L-lactate dehydrogenase B chain (Homo sapiens, UniProt P07195); assay: Binding affinity to full length human N-terminal His6-tagged LDH-H expressed in Escherichia coli Rosetta (DE3) assessed as effect on tetramerization site at 100 to 200 uM in sodium phosphate buffer at pH 7.6 by WaterLOGSY NMR analysis
Target sequence in this assay (P07195 2-334 limits assumed): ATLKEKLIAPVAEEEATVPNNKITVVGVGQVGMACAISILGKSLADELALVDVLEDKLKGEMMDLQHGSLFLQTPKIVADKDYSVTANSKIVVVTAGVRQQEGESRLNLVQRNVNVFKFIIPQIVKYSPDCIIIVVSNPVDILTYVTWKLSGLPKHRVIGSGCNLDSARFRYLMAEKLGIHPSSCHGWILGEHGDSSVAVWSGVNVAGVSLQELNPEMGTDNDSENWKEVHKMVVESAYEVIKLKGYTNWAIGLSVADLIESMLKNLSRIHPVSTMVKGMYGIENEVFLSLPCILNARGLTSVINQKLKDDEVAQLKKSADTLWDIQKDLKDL

[2] = molecular target: T1, L-lactate dehydrogenase B chain; assay: Binding affinity to truncated human N-terminal His6-tagged LDH-H expressed in Escherichia coli Rosetta (DE3) in sodium phosphate buffer at pH 7.6 by WaterLOGSY NMR analysis
Target sequence in this assay (P07195 2-334 limits assumed): as above

[3] = molecular target: T1, L-lactate dehydrogenase B chain; assay: Binding affinity to truncated human N-terminal His6-tagged LDH-H expressed in Escherichia coli Rosetta (DE3) after 5 mins by Red-NHS fluorescence dye-based microscale thermophoresis analysis
[4] = molecular target: T1, L-lactate dehydrogenase B chain; assay: Binding affinity to full length human N-terminal His6-tagged LDH-H expressed in Escherichia coli Rosetta (DE3) in sodium phosphate buffer at pH 7.6 by WaterLOGSY NMR analysis
Target sequence in this assay (P07195 whole entry, the tested form may be a part): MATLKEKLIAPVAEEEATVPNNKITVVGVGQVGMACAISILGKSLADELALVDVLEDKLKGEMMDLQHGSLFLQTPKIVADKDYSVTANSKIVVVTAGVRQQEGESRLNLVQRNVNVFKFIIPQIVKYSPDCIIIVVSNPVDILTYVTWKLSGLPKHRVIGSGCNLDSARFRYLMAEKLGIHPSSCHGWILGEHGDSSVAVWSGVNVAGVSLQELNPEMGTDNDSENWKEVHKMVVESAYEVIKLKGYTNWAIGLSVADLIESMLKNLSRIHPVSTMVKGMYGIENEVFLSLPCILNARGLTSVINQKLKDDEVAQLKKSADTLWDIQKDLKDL

[5] = Conformational stability in water assessed as helical structural propensity by 2D NMR-ROESY analysis; assay type: physicochemical; conditions: buffer
[6] = Conformational stability in sodium phosphate buffer assessed as increase in alpha-helicity with theta 222 band formation at 100 uM by circular dichroism method; assay type: physicochemical
[7] = molecular target: T1, L-lactate dehydrogenase B chain; assay: Binding affinity to full length human N-terminal His6-tagged LDH-H expressed in Escherichia coli Rosetta (DE3) assessed as saturation transfer at lipophilic residues at 800 uM in sodium phosphate buffer at pH 7.6 by WaterLOGSY NMR analysis
Target sequence in this assay (P07195 2-334 limits assumed): as the sequence (P07195 2-334 limits assumed) above

[8] = molecular target: T1, L-lactate dehydrogenase B chain; assay: Binding affinity to recombinant full length human His-tagged LDH-1 (1 to 322 residues) expressed in Escherichia coli by WaterLOGSY NMR analysis
Target sequence in this assay (P07195 whole entry, the tested form may be a part): as the sequence (P07195 whole entry, the tested form may be a part) above

[9] = Conformational stability in water assessed as helical structural propensity by circular dichroism method; assay type: physicochemical; conditions: buffer
[10] = molecular target: L-lactate dehydrogenase A chain (Oryctolagus cuniculus) (UniProt P13491); assay: Binding affinity to rabbit LDH-5 assessed as acid-induced dimerization by measuring fluorescence recovery at 50 uM pH 7.6 by nano differential scanning fluorimetry analysis
[11] = molecular target: L-lactate dehydrogenase A chain (Oryctolagus cuniculus) (UniProt P13491); assay: Binding affinity to rabbit LDH-M assessed as acid-induced dimerization by measuring fluorescence recovery at pH 5 by nano differential scanning fluorimetry analysis
[12] = molecular target: L-lactate dehydrogenase A chain (Oryctolagus cuniculus) (UniProt P13491); assay: Binding affinity to rabbit LDH-5 assessed as acid-induced dimerization by measuring fluorescence recovery at pH 7.6 by nano differential scanning fluorimetry analysis
[13] = molecular target: T2, L-lactate dehydrogenase A chain (Homo sapiens, UniProt P00338); assay: Competitive binding affinity to human N-terminal His6-tagged LDH-5 expressed in Escherichia coli Rosetta (DE3) assessed as protein-compound interaction at N-terminal domain after 5 mins by Red-NHS fluorescence dye-based microscale thermophoresis analysis
[14] = Conformational stability in sodium phosphate buffer assessed as increase in alpha-helicity with strong theta 206 band formation at 100 uM by circular dichroism method; assay type: physicochemical
[15] = molecular target: T1, L-lactate dehydrogenase B chain; assay: Competitive binding affinity to recombinant full length human His-tagged LDH-1 (1 to 322 residues) expressed in Escherichia coli assessed as protein-compound interaction at N-terminal domain after 5 mins by Red-NHS fluorescence dye based microscale thermophoresis analysis
Target sequence in this assay (P07195 2-334 limits assumed): as the sequence (P07195 2-334 limits assumed) above

[16] = molecular target: T2, L-lactate dehydrogenase A chain; assay: Binding affinity to human N-terminal His6-tagged LDH-5 expressed in Escherichia coli Rosetta (DE3) assessed as thermal denaturation up to 500 uM by nano differential scanning fluorimetry analysis
[17] = molecular target: T1, L-lactate dehydrogenase B chain; assay: Binding affinity to recombinant full length human His-tagged LDH-1 (1 to 322 residues) expressed in Escherichia coli assessed as thermal denaturation up to 500 uM by nano differential scanning fluorimetry analysis
Target sequence in this assay (P07195 2-334 limits assumed): as above

[18] = Conformational stability in sodium phosphate buffer assessed as helical structural propensity at 200 uM and pH 7.6 at 25 degree C by circular dichroism method; assay type: physicochemical; conditions: pH 7.6, 200 µM
[19] = molecular target: L-lactate dehydrogenase B chain (Homo sapiens, UniProt P07195, L4A); assay: Binding affinity full length human N-terminal His6-tagged LDH-H L3A mutant expressed in Escherichia coli Rosetta (DE3) assessed as tetrameric disruption by nano differential scanning fluorimetry analysis
Sequence of L-lactate dehydrogenase B chain (Homo sapiens, UniProt P07195, L4A) (P07195 2-334 L4A limits assumed): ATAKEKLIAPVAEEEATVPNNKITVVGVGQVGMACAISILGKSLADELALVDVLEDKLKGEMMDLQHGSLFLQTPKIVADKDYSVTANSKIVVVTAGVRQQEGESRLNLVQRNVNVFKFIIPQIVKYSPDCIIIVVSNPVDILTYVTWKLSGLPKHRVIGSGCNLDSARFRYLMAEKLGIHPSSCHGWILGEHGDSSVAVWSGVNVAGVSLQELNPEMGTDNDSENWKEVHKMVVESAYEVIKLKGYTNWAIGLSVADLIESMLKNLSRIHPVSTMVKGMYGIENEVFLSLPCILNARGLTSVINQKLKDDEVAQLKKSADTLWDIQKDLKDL

[20] = tested on: L-lactate dehydrogenase B chain (Homo sapiens), P07195 [E6A]; assay: Binding affinity to full length human N-terminal His6-tagged LDH-H E5A mutant expressed in Escherichia coli Rosetta (DE3) assessed as melting temperature heated up to 95 degree C for 3 mins by nano differential scanning fluorimetry analysis
Sequence of L-lactate dehydrogenase B chain (Homo sapiens), P07195 [E6A] (P07195 whole entry E6A): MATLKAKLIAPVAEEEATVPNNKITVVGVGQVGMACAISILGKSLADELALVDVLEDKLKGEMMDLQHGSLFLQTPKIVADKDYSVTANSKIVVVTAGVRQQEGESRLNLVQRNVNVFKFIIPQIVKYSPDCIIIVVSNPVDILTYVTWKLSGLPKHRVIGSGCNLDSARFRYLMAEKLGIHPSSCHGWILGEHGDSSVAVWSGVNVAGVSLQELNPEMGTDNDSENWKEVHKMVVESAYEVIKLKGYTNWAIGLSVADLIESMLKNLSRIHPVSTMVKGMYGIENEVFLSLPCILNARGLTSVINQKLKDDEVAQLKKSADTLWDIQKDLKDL

[21] = tested on: L-lactate dehydrogenase B chain (Homo sapiens), P07195 [T3A]; assay: Binding affinity to full length human N-terminal His6-tagged LDH-H T2A mutant expressed in Escherichia coli Rosetta (DE3) assessed as melting temperature heated up to 95 degree C for 3 mins by nano differential scanning fluorimetry analysis
Sequence of L-lactate dehydrogenase B chain (Homo sapiens), P07195 [T3A] (P07195 whole entry T3A): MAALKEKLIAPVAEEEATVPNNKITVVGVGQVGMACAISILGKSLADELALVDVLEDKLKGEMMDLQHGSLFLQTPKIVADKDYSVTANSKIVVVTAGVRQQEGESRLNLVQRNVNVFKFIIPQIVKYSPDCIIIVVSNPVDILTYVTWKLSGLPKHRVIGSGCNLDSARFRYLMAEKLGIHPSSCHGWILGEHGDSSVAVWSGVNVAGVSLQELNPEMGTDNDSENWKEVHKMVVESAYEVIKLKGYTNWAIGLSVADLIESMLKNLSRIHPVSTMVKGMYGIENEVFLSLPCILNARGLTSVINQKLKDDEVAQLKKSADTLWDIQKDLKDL

[22] = molecular target: T1, L-lactate dehydrogenase B chain; assay: Binding affinity to full length human N-terminal His6-tagged LDH-H expressed in Escherichia coli Rosetta (DE3) assessed as melting temperature heated up to 95 degree C for 3 mins by nano differential scanning fluorimetry analysis
Target sequence in this assay (P07195 2-334 limits assumed): as the sequence (P07195 2-334 limits assumed) above

[23] = molecular target: L-lactate dehydrogenase B chain (Homo sapiens, UniProt P07195, T3A); assay: Binding affinity full length human N-terminal His6-tagged LDH-H T2A mutant expressed in Escherichia coli Rosetta (DE3) assessed as tetrameric disruption by nano differential scanning fluorimetry analysis
Sequence of L-lactate dehydrogenase B chain (Homo sapiens, UniProt P07195, T3A) (P07195 2-334 T3A limits assumed): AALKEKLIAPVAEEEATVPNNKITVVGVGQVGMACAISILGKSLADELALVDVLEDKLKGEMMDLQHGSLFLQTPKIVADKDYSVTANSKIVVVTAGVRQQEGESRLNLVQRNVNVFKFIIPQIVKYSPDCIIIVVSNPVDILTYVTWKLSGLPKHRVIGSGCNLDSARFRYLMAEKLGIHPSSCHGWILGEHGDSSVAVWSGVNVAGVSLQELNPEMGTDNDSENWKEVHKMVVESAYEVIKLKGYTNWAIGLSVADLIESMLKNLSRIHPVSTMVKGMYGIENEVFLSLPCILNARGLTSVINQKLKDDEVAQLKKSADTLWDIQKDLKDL

[24] = tested on: L-lactate dehydrogenase B chain (Homo sapiens), P07195 [L4A]; assay: Binding affinity to full length human N-terminal His6-tagged LDH-H L3A mutant expressed in Escherichia coli Rosetta (DE3) assessed as change in melting temperature heated up to 95 degree C for 3 mins by nano differential scanning fluorimetry analysis
Sequence of L-lactate dehydrogenase B chain (Homo sapiens), P07195 [L4A] (P07195 whole entry L4A, the tested form may be a part): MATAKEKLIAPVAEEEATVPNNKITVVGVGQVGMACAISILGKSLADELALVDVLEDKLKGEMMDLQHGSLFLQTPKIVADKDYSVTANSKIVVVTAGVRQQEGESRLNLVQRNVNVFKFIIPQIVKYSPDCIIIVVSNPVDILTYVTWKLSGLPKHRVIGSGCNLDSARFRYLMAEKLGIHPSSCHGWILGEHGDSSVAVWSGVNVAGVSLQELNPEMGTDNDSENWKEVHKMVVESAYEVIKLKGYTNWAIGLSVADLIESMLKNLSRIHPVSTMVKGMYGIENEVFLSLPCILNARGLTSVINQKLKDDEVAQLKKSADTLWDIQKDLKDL

[25] = tested on: L-lactate dehydrogenase B chain (Homo sapiens), P07195 [L8A]; assay: Binding affinity to full length human N-terminal His6-tagged LDH-H L7A mutant expressed in Escherichia coli Rosetta (DE3) assessed as melting temperature heated up to 95 degree C for 3 mins by nano differential scanning fluorimetry analysis
Sequence of L-lactate dehydrogenase B chain (Homo sapiens), P07195 [L8A] (P07195 whole entry L8A): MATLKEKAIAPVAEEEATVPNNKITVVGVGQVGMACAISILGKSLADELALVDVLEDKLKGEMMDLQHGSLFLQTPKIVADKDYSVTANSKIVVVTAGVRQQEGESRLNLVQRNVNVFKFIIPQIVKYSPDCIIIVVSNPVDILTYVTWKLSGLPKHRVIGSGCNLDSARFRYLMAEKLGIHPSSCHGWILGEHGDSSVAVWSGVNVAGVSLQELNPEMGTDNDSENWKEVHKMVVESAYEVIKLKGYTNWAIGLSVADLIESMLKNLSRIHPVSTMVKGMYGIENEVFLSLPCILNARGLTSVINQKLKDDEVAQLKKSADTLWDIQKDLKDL

[26] = tested on: L-lactate dehydrogenase B chain (Homo sapiens), P07195 [L4A]; assay: Binding affinity to full length human N-terminal His6-tagged LDH-H L3A mutant expressed in Escherichia coli Rosetta (DE3) assessed as melting temperature heated up to 95 degree C for 3 mins by nano differential scanning fluorimetry analysis
[27] = molecular target: T1, L-lactate dehydrogenase B chain; assay: Binding affinity to truncated human N-terminal His6-tagged LDH-H expressed in Escherichia coli Rosetta (DE3) assessed as melting temperature heated up to 95 degree C for 3 mins by nano differential scanning fluorimetry analysis
[28] = tested on: L-lactate dehydrogenase B chain (Homo sapiens), P07195 [I9A]; assay: Binding affinity to full length human N-terminal His6-tagged LDH-H I8A mutant expressed in Escherichia coli Rosetta (DE3) assessed as melting temperature heated up to 95 degree C for 3 mins by nano differential scanning fluorimetry analysis
Sequence of L-lactate dehydrogenase B chain (Homo sapiens), P07195 [I9A] (P07195 whole entry I9A): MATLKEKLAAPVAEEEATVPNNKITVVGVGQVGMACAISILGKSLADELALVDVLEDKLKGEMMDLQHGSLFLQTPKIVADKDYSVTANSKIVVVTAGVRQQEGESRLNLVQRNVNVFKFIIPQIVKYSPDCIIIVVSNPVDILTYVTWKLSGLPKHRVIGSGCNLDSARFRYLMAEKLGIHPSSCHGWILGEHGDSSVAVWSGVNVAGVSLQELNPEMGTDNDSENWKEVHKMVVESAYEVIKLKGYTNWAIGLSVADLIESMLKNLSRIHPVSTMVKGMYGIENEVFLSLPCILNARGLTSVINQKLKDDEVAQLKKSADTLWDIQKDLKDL

[29] = molecular target: L-lactate dehydrogenase B chain (Homo sapiens, UniProt P07195, K5A); assay: Binding affinity full length human N-terminal His6-tagged LDH-H K4A mutant expressed in Escherichia coli Rosetta (DE3) assessed as tetrameric disruption by nano differential scanning fluorimetry analysis
[30] = tested on: L-lactate dehydrogenase B chain (Homo sapiens), P07195 [K5A]; assay: Binding affinity to full length human N-terminal His6-tagged LDH-H K4A mutant expressed in Escherichia coli Rosetta (DE3) assessed as melting temperature heated up to 95 degree C for 3 mins by nano differential scanning fluorimetry analysis
Sequence of L-lactate dehydrogenase B chain (Homo sapiens), P07195 [K5A] (P07195 whole entry K5A): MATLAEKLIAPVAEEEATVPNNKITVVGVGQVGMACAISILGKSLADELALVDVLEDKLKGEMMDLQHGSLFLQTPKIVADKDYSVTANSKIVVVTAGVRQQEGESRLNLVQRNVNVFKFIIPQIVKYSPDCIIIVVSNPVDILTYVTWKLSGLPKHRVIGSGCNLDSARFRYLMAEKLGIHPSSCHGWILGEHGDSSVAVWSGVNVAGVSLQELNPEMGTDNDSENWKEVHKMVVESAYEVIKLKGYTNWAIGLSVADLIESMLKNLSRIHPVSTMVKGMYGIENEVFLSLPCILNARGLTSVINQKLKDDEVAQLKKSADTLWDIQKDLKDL

[31] = tested on: L-lactate dehydrogenase B chain (Homo sapiens), P07195 [I9A]; assay: Binding affinity to full length human N-terminal His6-tagged LDH-H I8A mutant expressed in Escherichia coli Rosetta (DE3) assessed as changed in melting temperature heated up to 95 degree C for 3 mins by nano differential scanning fluorimetry analysis
[32] = tested on: L-lactate dehydrogenase B chain (Homo sapiens), P07195 [K7A]; assay: Binding affinity to full length human N-terminal His6-tagged LDH-H K6A mutant expressed in Escherichia coli Rosetta (DE3) assessed as melting temperature heated up to 95 degree C for 3 mins by nano differential scanning fluorimetry analysis
Sequence of L-lactate dehydrogenase B chain (Homo sapiens), P07195 [K7A] (P07195 whole entry K7A): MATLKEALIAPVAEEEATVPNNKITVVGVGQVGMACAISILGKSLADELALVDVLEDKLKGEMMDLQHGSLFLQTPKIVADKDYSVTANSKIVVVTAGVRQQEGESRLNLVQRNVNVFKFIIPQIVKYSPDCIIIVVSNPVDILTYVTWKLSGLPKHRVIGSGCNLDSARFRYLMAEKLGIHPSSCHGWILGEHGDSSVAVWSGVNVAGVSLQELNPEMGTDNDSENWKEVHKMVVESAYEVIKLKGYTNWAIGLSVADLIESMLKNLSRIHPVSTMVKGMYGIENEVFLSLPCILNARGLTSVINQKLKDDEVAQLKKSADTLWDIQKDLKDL

[33] = molecular target: L-lactate dehydrogenase B chain (Homo sapiens, UniProt P07195, K7A); assay: Binding affinity full length human N-terminal His6-tagged LDH-H K6A mutant expressed in Escherichia coli Rosetta (DE3) assessed as tetrameric disruption by nano differential scanning fluorimetry analysis
Sequence of L-lactate dehydrogenase B chain (Homo sapiens, UniProt P07195, K7A) (P07195 2-334 K7A limits assumed): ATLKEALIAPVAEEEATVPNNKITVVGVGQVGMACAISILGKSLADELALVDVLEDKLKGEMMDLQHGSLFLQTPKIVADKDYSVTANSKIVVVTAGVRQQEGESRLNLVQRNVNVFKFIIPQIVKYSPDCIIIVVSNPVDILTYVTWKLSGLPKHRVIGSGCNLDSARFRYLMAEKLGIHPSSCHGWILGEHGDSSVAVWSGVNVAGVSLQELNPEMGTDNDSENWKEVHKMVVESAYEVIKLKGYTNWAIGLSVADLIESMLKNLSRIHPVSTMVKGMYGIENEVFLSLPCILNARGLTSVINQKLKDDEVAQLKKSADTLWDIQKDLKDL

[34] = molecular target: L-lactate dehydrogenase B chain (Homo sapiens, UniProt P07195, I9A); assay: Binding affinity full length human N-terminal His6-tagged LDH-H I8A mutant expressed in Escherichia coli Rosetta (DE3) assessed as tetrameric disruption by nano differential scanning fluorimetry analysis
Sequence of L-lactate dehydrogenase B chain (Homo sapiens, UniProt P07195, I9A) (P07195 2-334 I9A limits assumed): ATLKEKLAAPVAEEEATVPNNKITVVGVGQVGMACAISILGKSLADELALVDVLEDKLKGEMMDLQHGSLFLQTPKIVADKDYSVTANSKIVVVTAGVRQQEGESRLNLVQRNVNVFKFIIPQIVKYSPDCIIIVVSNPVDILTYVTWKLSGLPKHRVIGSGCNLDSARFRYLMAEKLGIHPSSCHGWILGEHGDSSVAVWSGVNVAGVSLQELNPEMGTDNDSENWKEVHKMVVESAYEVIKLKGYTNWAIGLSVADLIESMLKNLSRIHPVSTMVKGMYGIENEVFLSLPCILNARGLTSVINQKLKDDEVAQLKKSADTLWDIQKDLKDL

Compound: H-GTLKEKLI-NH2
Activity [1]: inactive

Compound: CC[C@H](C)[C@H](NC(=O)[C@H](CC(C)C)NC(=O)[C@H](CCCCN)NC(=O)[C@H](CCC(=O)O)NC(=O)C(C)(C)NC(=O)[C@H](CC(C)C)NC(=O)[C@@H](NC(=O)[C@H](C)N)[C@@H](C)O)C(N)=O (HELM PEPTIDE1{A.T.L.[Aib].E.K.L.I.[am]}$$$$V2.0)
Activity [2]: Active
Activity [3]: inactive

Compound: CC[C@H](C)C(NC(=O)[C@H](CC(C)C)NC(=O)[C@H](CCCCN)NC(=O)[C@H](CCC(=O)O)NC(=O)[C@@H]1CSCc2cccc(c2)CSC[C@H](N)C(=O)N[C@@H](C)C(=O)N[C@@H]([C@@H](C)O)C(=O)N[C@@H](CC(C)C)C(=O)N1)C(N)=O (stereo partly drawn) (HELM PEPTIDE1{C.A.T.L.C.E.K.L.[CC[C@H](C)C(N[*:1])C(=O)[*:2]].[am]}|CHEM1{[c1cc(C[*:1])cc(C[*:2])c1]}$PEPTIDE1,CHEM1,1:R3-1:R1|PEPTIDE1,CHEM1,5:R3-1:R2$$$V2.0)
Kd [3]: > 1 mM

Compound: H-ATLAEKLI-NH2
Activity [1]: inactive

Compound: H-ATLKDQLI-OH
Kd [4]: 1.49 mM

Compound: H-ATLKEKAI-NH2
Activity [1]: inactive

Compound: H-ATLKEKLI-NH2
Stability [5]: Unstable
Stability [6]: Stable
Activity [7]: Active
Kd [4]: 1.02 mM
Activity [8]: Not Active
Stability [9]: Unstable
Activity [10]: Active

Compound: CC[C@H](C)[C@H](NC(=O)[C@H](CC(C)C)NC(=O)[C@H](CCCCN)NC(=O)[C@@H]1CSCc2cccc(c2)CSC[C@H](N)C(=O)N[C@@H]([C@@H](C)O)C(=O)N[C@@H](CC(C)C)C(=O)N[C@@H](CCCCN)C(=O)N1)C(N)=O (HELM PEPTIDE1{C.T.L.K.C.K.L.I.[am]}|CHEM1{[c1cc(C[*:1])cc(C[*:2])c1]}$PEPTIDE1,CHEM1,1:R3-1:R1|PEPTIDE1,CHEM1,5:R3-1:R2$$$V2.0)
Activity [11]: inactive
Activity [12]: Active
Activity [13]: inactive
Stability [14]: Stable
Activity [15]: inactive
Activity [16]: inactive
Activity [17]: inactive

Compound: H-ATLKEKL-NH2
Activity [1]: inactive
Stability [18]: Unstable

Compound: CC[C@H](C)[C@@H]1NC(=O)[C@H](CC(C)C)NC(=O)[C@@H](NC(=O)[C@H](CCC(=O)O)NC(=O)[C@H](CCCCN)NC(=O)[C@H](CC(C)C)NC(=O)[C@@H](NC(=O)[C@H](C)N)[C@@H](C)O)CCCCNC1=O (HELM PEPTIDE1{A.T.L.K.E.K.L.I}$PEPTIDE1,PEPTIDE1,6:R3-8:R2$$$V2.0)
Kd [3]: > 1 mM

Compound: N=C(N)N [GUANIDINE HYDROCHLORIDE]
EC50 [19]: 624 mM
Tm [20]: 73.3 °C
Tm [21]: 72.4 °C
Tm [22]: 74.5 °C
EC50 [23]: 978 mM
ΔTm [24]: 13.3 °C
Tm [25]: 55.6 °C
Tm [26]: 61.2 °C
Tm [27]: 57.5 °C
Tm [28]: 49.9 °C
EC50 [29]: 991 mM
Tm [30]: 65.8 °C
ΔTm [31]: 24.6 °C
Tm [32]: 67.9 °C
EC50 [33]: 954 mM
EC50 [34]: 233 mM

Compound: CC[C@H](C)[C@@H]1NC(=O)[C@H](CC(C)C)NC(=O)[C@@H](NC(=O)[C@H](CCC(=O)O)NC(=O)[C@H](CCCCN)NC(=O)[C@H](CC(C)C)NC(=O)[C@@H](NC(=O)[C@H](C)N)[C@@H](C)O)CSCc2cccc(c2)CSC[C@@H](C(N)=O)NC(=O)[C@H](C)NC1=O (HELM PEPTIDE1{A.T.L.K.E.C.L.I.A.C.[am]}|CHEM1{[c1cc(C[*:1])cc(C[*:2])c1]}$PEPTIDE1,CHEM1,6:R3-1:R1|PEPTIDE1,CHEM1,10:R3-1:R2$$$V2.0)
Kd [3]: > 1 mM

Compound: H-ATGKEKLI-NH2
Activity [1]: inactive

Compound: H-ATLKEKLG-NH2
Activity [1]: inactive

The remaining lines, values ahead:

Activity [1]: inactive
Compound: H-ATLKEALI-NH2

Activity [1]: inactive
Compound: H-AALKEKLI-NH2

Activity [1]: inactive
Stability [18]: Unstable
Compound: Ac-TLKEKLI-NH2

Kd [4]: 1.05 mM
Compound: H-ATLKEKLIAPVAE-NH2

Activity [2]: Active
Activity [3]: inactive
Compound: CC[C@H](C)[C@H](NC(=O)[C@H](CC(C)C)NC(=O)C(C)(C)NC(=O)[C@H](CCC(=O)O)NC(=O)[C@H](CCCCN)NC(=O)[C@H](CC(C)C)NC(=O)[C@@H](NC(=O)[C@H](C)N)[C@@H](C)O)C(N)=O (HELM PEPTIDE1{A.T.L.K.E.[Aib].L.I.[am]}$$$$V2.0)

Activity [1]: inactive
Compound: H-ATLKEKLA-NH2

Activity [1]: inactive
Compound: H-ATLKAKLI-NH2

Activity [1]: inactive
Compound: H-ATAKEKLI-NH2
